# Assays:
# Assay type in all cases: cell-based
# [1] = tested on: HCT116 cells; experiment: Cell-Titer Blue viability of cells expressing YFP or full length Core 1 treated with apoptosis inducers
# Method: To determine whether Core 1 protected against apoptosis induced by TRAIL or through other pathways, cells were treated with several different apoptosis inducers and assayed for cell viability. Fas Ligand (FasL), also a TNFα family member which signals through Death Receptors, uses the same adaptor protein FADD to induce caspase activation and apoptosis. Cells stably expressing either yellow florescent protein (YFP) or human full length Core 1 were treated with 100 ng/ml of TRAIL or 16 ng/ml of FasL for 24 hours. Cell viability was assayed using the Cell-Titer Blue assay, where conversion of the indicator dye resazurin is used to measure the metabolic capacity of cells, an indicator of cell viability. […] Cells were then treated with two compounds which induce apoptosis through non-death receptor pathways. Camptothecin inhibits DNA topoisomerase 1, ultimately leading to DNA damage and death, while Taxotere is an inhibitor of microtubule depolymerization, which prevents cell division and leads to mitotic death.
# [2] = tested on: HCT116 cells; experiment: Cytochrome c release into the cytoplasmic fraction (ELISA); conditions: 100 ng/ml TRAIL, 24 hours
# Method: HCT116 cells stably expressing YFP or human full length Core 1 were treated with 100 ng/ml TRAIL for 24 hours. Control cells stably expressing YFP or human full length Core 1 were not treated with TRAIL. The cells were then harvested. Media containing floating cells was first removed to new tubes. The remaining adherent cells were detached using a cell scraper in ice-cold PBS and added to the media containing floating cells. The cells were pelleted by centrifuging at 1000×g for 10 minutes at 4° C. and resuspended in an iso-osmotic buffer (0.3M sucrose, 10 mM Tris pH 7.5, 1 mM EDTA, EDTA-free protease tablet). After a five minute incubation on ice, the cells were lysed using dounce homogenizers until about 90% of the plasma membranes were lysed. This was done to isolate the cytoplasmic fraction. The extent of cell lysis was monitored by mixing 10 μl of lysate with trypan blue and viewed on a hemocytometer. […] The concentration of lysates was determined using either the BioRad DC protein assay (BioRad) or the BCA method (Pierce, Rockford, Ill.). To quantitatively detect cytochrome c levels, lysates were assayed for cytochrome c using a Function ELISA cytochrome c kit (Active Motif, Carlsbad, Calif.) [FIG. 3B]. In untreated cells, low baseline levels of cytochrome c were detected in the cytoplasm.
# [3] = tested on: HCT116 cells; experiment: Annexin V apoptosis assay (FACS) after TRAIL treatment; conditions: 50 ng/ml TRAIL
# Method: To further characterize the ability of Core 1 to protect against TRAIL-induced apoptosis, the pEYK vector containing the partial cDNA of UQCRC1 isolated from the screen was used to directly infect HCT116 cells. Cells expressing dominant-negative FADD (dnFADD), which inhibits the signal from the TRAIL receptors, was used as a control. Cells were treated for 48 hours with 0, 10 or 50 ng/mL of TRAIL and assayed for Annexin V, an early marker of apoptosis [FIG. 2A]. Expression of dnFADD inhibited TRAIL-induced apoptosis, with 78% of cells Annexin V negative or non-apoptotic at 50 ng/ml TRAIL.
# To confirm that the protection observed from the partial Core 1 protein is indicative of its function, the full length human Core 1 protein was cloned into the pLenti-vector (containing a HA-tag) and used to infect HCT116 to produce a stable cell line expressing Core 1. A control cell line was prepared similarly to express Yellow Fluorescent Protein (YFP). To confirm the protein expression of full length Core 1, cells were homogenized to prepare a mitochondrial and cytoplasmic lysate and western blotted with antibodies to Core 1 [FIG. 2C]. The endogenous Core 1 is detected in the mitochondrial fraction of both YFP and Core 1 expressing cells. Exogenously expressed Core 1 is HA-tagged and is detected as a higher migrating band in the mitochondrial fraction, as well as the cytoplasmic fraction. […] Thus, Core 1 is expressed in these HCT116 stable cell lines. To determine if full length Core 1 also protects against TRAIL-induced apoptosis, cells were treated with TRAIL and assayed for apoptosis by FACS analysis for cells that were Annexin V positive or negative.
# [4] = tested on: HCT116 cells; experiment: JC-1 mitochondrial membrane potential assay (FACS)
# Method: As Core 1 is a subunit of the mitochondrial respiratory Complex III, work was conducted to determine whether expression of Core 1 protects against mitochondrial depolarization, a critical step in mitochondrial mediated apoptosis. Changes in mitochondrial membrane potential during TRAIL treatment were studied using the JC-1 Assay Kit (Molecular Probes). JC-1 (5, 5′,6,6′,-tetrachloro-1,1′,3,3′-tetraethylbenzimidazolylcarbocyanine) is a cationic dye which has a diffuse green fluorescence in the cytoplasm. The accumulation of JC-1 in the mitochondria, which depends on intact, polarized mitochondria, results in the formation of red fluorescent aggregates. The ratio of green to red fluorescence was measured for the cells described in Example 2 above by Fluorescence-activated Cell Sorter (FACS) analysis. FACS is a method to sort cells based on specific cellular surface markers (e.g., red or green fluorescence). The above ratio is plotted as a percentage of polarized mitochondria.
# [5] = tested on: HCT116 cells; experiment: Western blot for caspase activation upon TRAIL stimulation; conditions: full length Core 1 vs YFP expressing HCT116; 200 ng/ml TRAIL, 24 hours
# Method: Cells stably expressing YFP or human full length Core 1 were treated for 24 hours with 200 ng/ml TRAIL, lysed, and western blotted with antibodies to several caspases. Caspase activation was detected by the cleavage of the full length pro-caspase to the smaller, active form. […] Thus, Core 1 expression inhibits the full activation of caspases 8, 9, and 3 upon TRAIL stimulation.
molecule,measurement,setting,value
CC(=O)O[C@@]12CO[C@@H]1C[C@H](O)[C@@]1(C)C(=O)[C@H](O)C3=C(C)[C@@H](OC(=O)[C@H](O)[C@@H](NC(=O)OC(C)(C)C)c4ccccc4)C[C@@](O)([C@@H](OC(=O)c4ccccc4)[C@H]21)C3(C)C [Taxotere],difference in viability between cells expressing YFP or full length Core 1,[1]; 10 nM Taxotere in dimethyl sulfoxide,No difference in viability
CC[C@@]1(O)C(=O)OCc2c1cc1n(c2=O)Cc2cc3ccccc3nc2-1 [Camptothecin],difference in viability between cells expressing YFP or full length Core 1,[1]; 200 nM Camptothecin in dimethyl sulfoxide,No difference in viability
"TRAIL: recombinant human TRAIL (BioMol), member of the TNF superfamily that induces apoptosis",increase in cytochrome c released into the cytoplasmic fraction,"[2]; HCT116 expressing YFP, vs untreated",10 fold
same,"cytochrome c released, relative to YFP cells",[2]; HCT116 expressing full length Core 1,only one-half as much
same,cells Annexin V negative,"[3]; HCT116 expressing GFP, 48 hours",2%
same,cells Annexin V negative or non-apoptotic,"[3]; HCT116 expressing dnFADD, 48 hours",78%
same,cells Annexin V negative,"[3]; HCT116 expressing partial Core 1, 48 hours",14.5%
same,protection against TRAIL-induced apoptosis,[3]; full length Core 1 vs YFP expressing cells,2.5 fold
same,increase in protection from TRAIL induced apoptosis,[3]; partial Core 1 vs GFP expressing cells,7 fold
same,polarized mitochondria remaining,"[4]; HCT116 expressing GFP, 50 ng/ml TRAIL",7%
same,mitochondrial depolarization,"[4]; HCT116 expressing dnFADD, all concentrations of TRAIL",completely protected
same,polarized mitochondria,"[4]; HCT116 expressing partial Core 1, 50 ng/ml TRAIL",38%
same,protection from mitochondrial depolarization over GFP,"[4]; partial Core 1 vs GFP expressing cells, 50 ng/ml TRAIL",5 fold
same,caspase 8 activation,[5],less active caspase 8
same,caspase 9 and caspase 3 activation,[5],reduced activation
"FasL: Fas Ligand, TNFα family member which signals through Death Receptors (protein, UniProt P48023 130-281, looked up) Tumor necrosis factor ligand …: QIGHPSPPPEKKELRKVAHLTGKSNSRSMPLEWEDTYGIVLLSGVKYKKGGLVINETGLYFVYSKVYFRGQSCNNLPLSHKVYMRNSKYPQDLVMMEGKMMSYCTTGQMWARSSYLGAVFNLTSADHLYVNVSELSLVNFEESQTFFGLYKL",protection from FasL induced apoptosis by Core 1 expression,"[1]; Core 1 vs YFP expressing cells, 16 ng/ml FasL, 24 hours",about a three-fold protection

# Source: patent US8329669B2, “Composition and method for treatment of tumors” (Sanofi, priority 2006, dated 2012)
